In patent US10328130B2, “Modified hyaluronidases and uses in treating hyaluronan-associated diseases and conditions” (Halozyme, Inc., priority 2008, dated 2019):
Read-outs that look alike come from different tables or passages of the source.

Legend:
[1] = tested on: PC3 prostate cancer xenograft tumor
Protocol: Tumor growth was monitored using VisualSonics Imaging Micro-ultrasound system. […] A control group of mice (G2) received 10 mg/kg docetaxel Q7D×2 intravenously on days 0 and 7. Another control group of mice received 30 mg/kg docetaxel Q7D×2 intravenously on days 0 and 7. […] A final control group that received only API buffer also was included in the study (G1). […] The Median Survival Time (MST) (in days) was calculated by median time to 1500 mm^3 tumor volume based on individual animals in each group. The % T/C is calculated by % T/C=(T/C)×100, where T is the median survival time to 1500 mm^3 tumor volume in the treated group and C is the median survival time to 1500 mm^3 tumor volume in the API buffer control group. By National Cancer Institute (NCI) criteria, a product with a % T/C over 125% is considered active. The Increase in Life Span (ILS) is a measure of anti-tumor activity calculated as [(T−C)/C]×100, where (T−C) is the difference in the median day to 1500 mm^3 tumor volume between the treated (T) and control (C) groups.
A control group of mice were intravenously administered 6 mg/kg Doxil® liposomal doxorubicin on days 0, 7 and 14. […] A final control group that received only API buffer also was include in the study.

PC-3M-luc-C6 cells = test: PC-3M-luc-C6 bone metastasis model: survival and bioluminescent imaging; type: in vivo, mouse; settings: for % survival: day 49
Protocol: Due to the bioluminescence of the PC-3M-luc-C6 cells, in addition to monitoring the survival of the mice, the mice were imaged to visualize the PC-3M-luc-C6 metastases. Briefly, 7-10 week old nu/nu male mice (Charles River Laboratories) were anesthetized and injected with 3×10^6 PC-3M-luc-C6 cells (a bioluminescent human prostate carcinoma cell line) suspended in 50 μL sterile DPBS by intracardial injection on day 0. Mice were injected into the left ventricle of the heart by non-surgical means to increase the potential for metastasis from PC-3M-luc-C6 cells. The intracardiac injection of tumor cells bypasses the lungs and serves as a method to disperse cells into general circulation in order to allow seeding of metastasis in multiple tissues within an animal. A satisfactory injection into the left ventricle was detectable within minutes by bioluminescent imaging (BLI) and was identified by an immediate but transient systemic bioluminescence over the entire animal, as indicated by complete blue signal BLI of mice. An unsuccessful implantation produced a more localized signal generally isolated and sustained over time solely within the thoracic region of the animal. […] Mice with successful intra-cardiac injection of PC-3Mluc-C6 cells on day 0 (n=10−13 mice/Grp) were imaged twice a week for up to four weeks and subsequently followed up for survival till day 49 and beyond that time point.
On day 14, the mice were subjected to one of several treatment regimens. A set of control mice was administered API buffer (10 mM Hepes and 130 mM NaCl, pH 7.0) only on days 14, 16, 18, 21, 23, 25, 28, 30, and 32.
The in vivo bioluminescent signal from the jaw region of mice corresponds to micrometastases in the dental pulp, mandible or cervical lymph nodes. Lower limb in vivo signals corresponded to metastatic lesions identified in the tibia or femur leg bones. The thoracic signals that are observed in vivo are associated with residual tumor cells that had seeded into the heart, lung or the pleural surface of the chest cavity. Mice with images indicating a successful systemic injection on day 0 and showing in vivo evidence of metastasis by day 29 were included in the analysis of the treatment groups.

[2] = PEGylated rHuPH20 10,000 U/mouse and/or docetaxel 10 mg/kg IV
[3] = PEGylated rHuPH20 10,000 U/mouse and/or Taxotere 10 mg/kg (admixed) IV
[4] = Taxotere 30 mg/kg IV days 14 and 21

For CC(=O)O[C@@]12CO[C@@H]1C[C@H](O)[C@@]1(C)C(=O)[C@H](O)C3=C(C)[C@@H](OC(=O)[C@H](O)[C@@H](NC(=O)OC(C)(C)C)c4ccccc4)C[C@@](O)([C@@H](OC(=O)c4ccccc4)[C@H]21)C3(C)C [Taxotere ® (docetaxel), docetaxel], the “Average Survival Time (to 1500 mm^3 tumor volume)” value [1, 2] was 38.96 ± 7.07, the “MST (Median Survival Time to 1500 mm^3 tumor volume)” value [1, 2] was 32.9 days and the Tumor volume ([1]; day 4, PEGylated rHuPH20 10,000 U/mouse and/or docetaxel 10 mg/kg IV) was 687.27 mm3. It also gave a Tumor volume ([1]; day 4, docetaxel 30 mg/kg IV) of 497.04 mm3, a Tumor volume ([1]; day 13, PEGylated rHuPH20 10,000 U/mouse and/or docetaxel 10 mg/kg IV) of 869.25 mm3 and a Tumor volume ([1]; day 13, docetaxel 30 mg/kg IV) of 401.12 mm3. It also gave a Tumor volume ([1]; day 21, PEGylated rHuPH20 10,000 U/mouse and/or docetaxel 10 mg/kg IV) of 1011.1 mm3, a Tumor volume ([1]; day 21, docetaxel 30 mg/kg IV) of 409.02 mm3 and a Tumor volume ([1]; day 27, PEGylated rHuPH20 10,000 U/mouse and/or docetaxel 10 mg/kg IV) of 1260.7 mm3. It also gave a Tumor volume ([1]; day 27, docetaxel 30 mg/kg IV) of 291.65 mm3, a Tumor volume ([1]; day 35, PEGylated rHuPH20 10,000 U/mouse and/or docetaxel 10 mg/kg IV) of 1441.1 mm3 and a Tumor volume ([1]; day 35, docetaxel 30 mg/kg IV) of 213.73 mm3. For the same molecule, the Tumor volume ([1]; day 42, PEGylated rHuPH20 10,000 U/mouse and/or docetaxel 10 mg/kg IV) was 1552.1 mm3, the Tumor volume ([1]; day 42, docetaxel 30 mg/kg IV) was 147.05 mm3 and the Tumor volume ([1]; day 50, docetaxel 30 mg/kg IV) was 130.2 mm3. For the same molecule, the Tumor volume ([1]; day 61, docetaxel 30 mg/kg IV) was 343.03 mm3, the Tumor volume ([1]; day 73, docetaxel 30 mg/kg IV) was 865.5 mm3 and the Tumor volume ([1]; day −1 (before treatment), PEGylated rHuPH20 10,000 U/mouse and/or docetaxel 10 mg/kg IV) was 470.39 mm3. For the same molecule, the Tumor volume ([1]; day −1 (before treatment), docetaxel 30 mg/kg IV) was 471.34 mm3, the “% ILS” value ([1]; increase in life span vs API buffer control, PEGylated rHuPH20 10,000 U/mouse and/or docetaxel 10 mg/kg) was 59% and the “% T/C” value ([1]; median survival time vs API buffer control, PEGylated rHuPH20 10,000 U/mouse and/or docetaxel 10 mg/kg) was 157%. For the same molecule, the “No. of animals alive at day 49” value (PC-3M-luc-C6 cells; [3]) was 9, the “surviving animals at day 29” value (PC-3M-luc-C6 cells; Taxotere 10 mg/kg or PEGylated rHuPH20 10,000 U/mouse alone) was 9 out of 12 and the “No. of animals alive at day 49” value (PC-3M-luc-C6 cells; [4]) was 10. The “mice remaining alive at Day 29” value (PC-3M-luc-C6 cells; [4]) was 10 out of 11, the “% survival” value (PC-3M-luc-C6 cells; [3]) was 75.00% and the “% survival” value (PC-3M-luc-C6 cells; [4]) was 90.91%.
